According to PubChem BioAssay AID1963423 (Molecular Pharmacology Branch, DTP, NCI, 2024):

System: 439559-082-T-J2-PDC complex spheroid growth
Test: Anticancer human tumor 439559-082-T-J2-PDC patient-derived colon adenocarcinoma cell line growth inhibition [Asc]
Conditions: for IC50: curve of first compound; for viability, T/C: stronger effect = lower value
Procedure, shortened: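 Tumor cells were grown as complex spheroids with human endothelial cells (HUVEC) and human mesenchymal stem cells as stroma. Agents were tested alone and in combination, in half-log steps down from the clinical Cmax, or from 10 microM where Cmax was unknown.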

[1] = second compound 0.1 µM, first compound 0.0316 µM
[2] = second compound 0.1 µM, first compound 0.1 µM
[3] = second compound 0.316 µM, first compound 0.0316 µM
[4] = second compound 0.316 µM, first compound 0.1 µM
[5] = second compound 1 µM, first compound 0.0316 µM
[6] = second compound 1 µM, first compound 0.1 µM
[7] = second compound 3.16 µM, first compound 0.0316 µM
[8] = second compound 3.16 µM, first compound 0.1 µM
[9] = second compound 10 µM, first compound 0.0316 µM
[10] = second compound 10 µM, first compound 0.1 µM
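Note: spheroids exposed to agents for 7 days starting day 3 after seeding.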
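Throughout, for viability, T/C: percent of DMSO vehicle control viability with 100% = vehicle.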

With `C=CC(=O)N1CCN(c2nc(=O)n(-c3c(C)ccnc3C(C)C)c3nc(-c4c(O)cccc4F)c(F)cc23)C(C)C1` (stereo not given) + Cc1c(S(C)(=O)=O)c(-c2cc(F)cc(N3CCN(c4ccc(NS(=O)(=O)c5ccc(NC(CCN6CCC(C(=O)OCCCP(=O)(O)O)CC6)CSc6ccccc6)c(S(=O)(=O)C(F)(F)F)c5)cc4)CC3)c2)c(-c2ccc(Cl)cc2)n1C(C)C the IC50 (second compound 0.1 µM) was > 10 µM, the IC50 (second compound 0.316 µM) was > 10 µM and the IC50 (second compound 1 µM) was > 10 µM. The IC50 (second compound 3.16 µM) was > 10 µM, the IC50 (second compound 10 µM) was > 10 µM and the viability, T/C [1] was 97.6%. For the same molecule, the viability, T/C [2] was 112%, the viability, T/C (second compound 0.1 µM, first compound 0.316 µM) was 99.2% and the viability, T/C (second compound 0.1 µM, first compound 1 µM) was 97.4%. For the same molecule, the viability, T/C (second compound 0.1 µM, first compound 3.16 µM) was 109%, the viability, T/C (second compound 0.1 µM, first compound 10 µM) was 99.8% and the viability, T/C [3] was 93.5%. The viability, T/C [4] was 107%, the viability, T/C (second compound 0.316 µM, first compound 0.316 µM) was 108% and the viability, T/C (second compound 0.316 µM, first compound 1 µM) was 98.2%. The viability, T/C (second compound 0.316 µM, first compound 3.16 µM) was 96.6%, the viability, T/C (second compound 0.316 µM, first compound 10 µM) was 88.3% and the viability, T/C [5] was 99.1%. It also gave a viability, T/C [6] of 102%, a viability, T/C (second compound 1 µM, first compound 0.316 µM) of 105% and a viability, T/C (second compound 1 µM, first compound 1 µM) of 88.9%. The viability, T/C (second compound 1 µM, first compound 3.16 µM) was 89.8%, the viability, T/C (second compound 1 µM, first compound 10 µM) was 91.6% and the viability, T/C [7] was 99.1%. It also gave a viability, T/C [8] of 101%, a viability, T/C (second compound 3.16 µM, first compound 0.316 µM) of 103% and a viability, T/C (second compound 3.16 µM, first compound 1 µM) of 89.1%. For the same molecule, the viability, T/C (second compound 3.16 µM, first compound 3.16 µM) was 88.1%, the viability, T/C (second compound 3.16 µM, first compound 10 µM) was 94.6% and the viability, T/C [9] was 78%. It also gave a viability, T/C [10] of 80%, a viability, T/C (second compound 10 µM, first compound 0.316 µM) of 80.5% and a viability, T/C (second compound 10 µM, first compound 1 µM) of 73.8%. It also gave a viability, T/C (second compound 10 µM, first compound 3.16 µM) of 87.6% and a viability, T/C (second compound 10 µM, first compound 10 µM) of 81.3%.

For `NC1CCC(NC2CC2c2ccccc2)CC1` (stereo not given) + Cc1c(S(C)(=O)=O)c(-c2cc(F)cc(N3CCN(c4ccc(NS(=O)(=O)c5ccc(NC(CCN6CCC(C(=O)OCCCP(=O)(O)O)CC6)CSc6ccccc6)c(S(=O)(=O)C(F)(F)F)c5)cc4)CC3)c2)c(-c2ccc(Cl)cc2)n1C(C)C, the IC50 (second compound 0.1 µM) was > 0.1 µM, the IC50 (second compound 0.316 µM) was > 0.1 µM and the IC50 (second compound 1 µM) was > 0.1 µM. The IC50 (second compound 3.16 µM) was > 0.1 µM, the IC50 (second compound 10 µM) was > 0.1 µM and the viability, T/C (second compound 0.1 µM, first compound 0.000316 µM) was 101%. For the same molecule, the viability, T/C (second compound 0.1 µM, first compound 0.001 µM) was 115%, the viability, T/C (second compound 0.1 µM, first compound 0.00316 µM) was 100% and the viability, T/C (second compound 0.1 µM, first compound 0.01 µM) was 93.1%. For the same molecule, the viability, T/C [1] was 113%, the viability, T/C [2] was 102% and the viability, T/C (second compound 0.316 µM, first compound 0.000316 µM) was 99.4%. It also gave a viability, T/C (second compound 0.316 µM, first compound 0.001 µM) of 114%, a viability, T/C (second compound 0.316 µM, first compound 0.00316 µM) of 104% and a viability, T/C (second compound 0.316 µM, first compound 0.01 µM) of 103%. The viability, T/C [3] was 105%, the viability, T/C [4] was 113% and the viability, T/C (second compound 1 µM, first compound 0.000316 µM) was 96.6%. It also gave a viability, T/C (second compound 1 µM, first compound 0.001 µM) of 107%, a viability, T/C (second compound 1 µM, first compound 0.00316 µM) of 117% and a viability, T/C (second compound 1 µM, first compound 0.01 µM) of 89.7%. For the same molecule, the viability, T/C [5] was 97.8%, the viability, T/C [6] was 104% and the viability, T/C (second compound 3.16 µM, first compound 0.000316 µM) was 95.2%. It also gave a viability, T/C (second compound 3.16 µM, first compound 0.001 µM) of 108%, a viability, T/C (second compound 3.16 µM, first compound 0.00316 µM) of 109% and a viability, T/C (second compound 3.16 µM, first compound 0.01 µM) of 90.8%. The viability, T/C [7] was 89.9%, the viability, T/C [8] was 104% and the viability, T/C (second compound 10 µM, first compound 0.000316 µM) was 88.3%. For the same molecule, the viability, T/C (second compound 10 µM, first compound 0.001 µM) was 96.4%, the viability, T/C (second compound 10 µM, first compound 0.00316 µM) was 87.1% and the viability, T/C (second compound 10 µM, first compound 0.01 µM) was 88.2%. For the same molecule, the viability, T/C [9] was 85.1% and the viability, T/C [10] was 86%.
